As a reminder, the melting point is the temperature, or range, at which the solid turns liquid.

Tested on in the first data set: not given
Assay: not given
Conditions: not given
Compound `CCc1nc(/C=C/c2cn(-c3ccccc3)nc2OCc2ccc(OCc3nc(-c4cccc(-c5noc(=O)[nH]5)c4)oc3C)c(OC)c2)cs1` [Example 375, 3-{3-[4-({4-[({4-[(E)-2-(2-ethyl-1,3-thiazol-4-yl)ethenyl]-1-phenyl-1H-pyrazol-3-yl}oxy)methyl]-2-methoxyphenoxy}methyl)-5-methyl-1,3-oxazol-2-yl]phenyl}-1,2,4-oxadiazol-5(4H)-one] displayed a melting point of 139 to 140 °C.

`CCc1nc(/C=C/c2cn(-c3ccccc3)nc2OCc2ccc(OCc3nc(-c4cccc(C(=O)NS(C)(=O)=O)c4)oc3C)c(OC)c2)cs1` [Example 376, 3-[4-({4-[({4-[(E)-2-(2-ethyl-1,3-thiazol-4-yl)ethenyl]-1-phenyl-1H-pyrazol-3-yl}oxy)methyl]-2-methoxyphenoxy}methyl)-5-methyl-1,3-oxazol-2-yl]-N-(methylsulfonyl)benzamide] returned a melting point of 211 to 213 °C.

In turn, `CCOC(=O)Cc1ccc(-c2nc(COc3ccc(COc4nn(-c5ccccc5)cc4/C=C/c4nc(CC)sc4C)cc3OC)c(C)o2)cc1` [Example 378, ethyl {4-[4-({4-[({4-[(E)-2-(2-ethyl-5-methyl-1,3-thiazol-4-yl)ethenyl]-1-phenyl-1H-pyrazol-3-yl}oxy)methyl]-2-methoxyphenoxy}methyl)-5-methyl-1,3-oxazol-2-yl]phenyl}acetate] had a melting point of 127 to 128 °C.

For the compound `CCOC(=O)Cc1ccc(-c2nc(COc3ccc(COc4nn(-c5ccccc5)cc4/C=C/c4nc(N5CCN(C(=O)OC(C)(C)C)CC5)sc4C)cc3OC)c(C)o2)cc1` [Example 380, tert-butyl 4-{4-[(E)-2-(3-{[4-({2-[4-(2-ethoxy-2-oxoethyl)phenyl]-5-methyl-1,3-oxazol-4-yl}methoxy)-3-methoxybenzyl]oxy}-1-phenyl-1H-pyrazol-4-yl)ethenyl]-5-methyl-1,3-thiazol-2-yl}piperazine-1-carboxylate], the melting point fell in the range of 112 to 114 °C.

`COc1cc(COc2nn(-c3ccccc3)cc2/C=C/c2nc(N3CCN(C(=O)OC(C)(C)C)CC3)sc2C)ccc1OCc1nc(-c2ccc(CC(=O)O)cc2)oc1C` [Example 381, [4-(4-{[4-({[4-((E)-2-{2-[4-(tert-butoxycarbonyl)piperazin-1-yl]-5-methyl-1,3-thiazol-4-yl}ethenyl)-1-phenyl-1H-pyrazol-3-yl]oxy}methyl)-2-methoxyphenoxy]methyl}-5-methyl-1,3-oxazol-2-yl)phenyl]acetic acid] registered a melting point of 119 to 120 °C.

Regarding `CCOC(=O)Cc1ccc(-c2nc(COc3ccc(COc4nn(-c5ccccc5)cc4/C=C/c4nc(N5CCCCC5)sc4C)cc3OC)c(C)o2)cc1` [Example 382, ethyl [4-{4-[(2-methoxy-4-{[(4-{(E)-2-[5-methyl-2-(piperidin-1-yl)-1,3-thiazol-4-yl]ethenyl}-1-phenyl-1H-pyrazol-3-yl)oxy]methyl}phenoxy)methyl]-5-methyl-1,3-oxazol-2-yl}phenyl]acetate], the melting point lay in the range of 131 to 132 °C.

With `COc1cc(COc2nn(-c3ccccc3)cc2/C=C/c2nc(N3CCCCC3)sc2C)ccc1OCc1nc(-c2ccc(CC(=O)O)cc2)oc1C` [Example 383, [4-{4-[(2-methoxy-4-{[(4-{(E)-2-[5-methyl-2-(piperidin-1-yl)-1,3-thiazol-4-yl]ethenyl}-1-phenyl-1H-pyrazol-3-yl)oxy]methyl}phenoxy)methyl]-5-methyl-1,3-oxazol-2-yl}phenyl]acetic acid], the melting point fell in the range of 146 to 148 °C.

`COc1cc(COc2nn(-c3ccccc3)cc2/C=C/c2nc(N3CCOCC3)sc2C)ccc1OCc1nc(-c2ccc(CC(=O)O)cc2)oc1C` [Example 385, [4-(4-{[2-methoxy-4-({[4-{(E)-2-[5-methyl-2-(morpholin-4-yl)-1,3-thiazol-4-yl]ethenyl}-1-phenyl-1H-pyrazol-3-yl]oxy}methyl)phenoxy]methyl)-5-methyl-1,3-oxazol-2-yl}phenyl]acetic acid] registered a melting point of 171 to 173 °C.

Take `CCc1nc(/C=C/c2cn(-c3ccccc3)nc2OCc2ccc(OCc3nc(-c4cccc(NS(C)(=O)=O)c4)oc3C)c(OC)c2)cs1` [Example 388, N-{3-[4-({4-[({4-[(E)-2-(2-ethyl-1,3-thiazol-4-yl)ethenyl]-1-phenyl-1H-pyrazol-3-yl}oxy)methyl]-2-methoxyphenoxy}methyl)-5-methyl-1,3-oxazol-2-yl]phenyl}methanesulfonamide]: the melting point lay within 113 to 115 °C.

Turning to `CCc1nc(/C=C/c2cn(-c3ccccc3)nc2OCc2cc(OCc3nc(-c4ccc(CC(=O)O)cc4)oc3C)no2)cs1` [Example 390, (4-{4-[({5-[({4-[(E)-2-(2-ethyl-1,3-thiazol-4-yl)ethenyl]-1-phenyl-1H-pyrazol-3-yl}oxy)methyl]isoxazol-3-yl}oxy)methyl]-5-methyl-1,3-oxazol-2-yl}phenyl)acetic acid], the melting point fell in the range of 156 to 158 °C.

The target in another data set is T1, human PPARγ1 (Homo sapiens, UniProt P37231).
T1 construct: expressed in transfected cells; host or cells: CHO-K1 cells stably transfected with pVgRXR2-hPPARγ and reporter plasmid pGL3-4ERPP-TK neo
T1 sequence (P37231 1-477 isoform P37231-2): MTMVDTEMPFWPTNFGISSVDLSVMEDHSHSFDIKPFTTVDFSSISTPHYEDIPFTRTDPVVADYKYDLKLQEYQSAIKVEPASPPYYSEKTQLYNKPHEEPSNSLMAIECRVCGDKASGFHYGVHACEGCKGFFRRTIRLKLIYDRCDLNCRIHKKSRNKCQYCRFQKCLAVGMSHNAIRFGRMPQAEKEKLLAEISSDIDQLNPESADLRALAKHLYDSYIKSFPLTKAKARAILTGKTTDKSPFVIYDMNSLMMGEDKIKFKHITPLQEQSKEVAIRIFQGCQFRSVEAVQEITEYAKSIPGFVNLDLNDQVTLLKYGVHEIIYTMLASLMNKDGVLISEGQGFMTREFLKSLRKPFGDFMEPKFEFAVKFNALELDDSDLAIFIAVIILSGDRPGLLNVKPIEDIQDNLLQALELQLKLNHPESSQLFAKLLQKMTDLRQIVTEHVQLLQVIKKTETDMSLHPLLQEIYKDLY
T1 sequence (P19793 1-462 partner): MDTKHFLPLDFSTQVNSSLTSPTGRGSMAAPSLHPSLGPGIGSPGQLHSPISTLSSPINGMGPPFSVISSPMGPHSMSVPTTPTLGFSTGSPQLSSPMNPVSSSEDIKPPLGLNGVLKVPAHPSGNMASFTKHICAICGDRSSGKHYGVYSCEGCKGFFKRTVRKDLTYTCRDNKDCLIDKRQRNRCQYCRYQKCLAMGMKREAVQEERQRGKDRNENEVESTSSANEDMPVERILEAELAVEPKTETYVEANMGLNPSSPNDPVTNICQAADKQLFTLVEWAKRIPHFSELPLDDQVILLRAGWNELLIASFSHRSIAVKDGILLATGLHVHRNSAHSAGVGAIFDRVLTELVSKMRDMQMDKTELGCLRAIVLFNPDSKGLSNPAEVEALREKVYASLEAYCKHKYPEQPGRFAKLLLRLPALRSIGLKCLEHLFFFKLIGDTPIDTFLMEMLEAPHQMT
Briefly: Human PPARγ1 antagonist assay (luciferase reporter in PPARγ:RXRα:4ERPP/CHO-K1 cells). It is filed as cell-based. The following applies: test compound 10^−6 M, 10 nM compound A as stimulant, luciferase activity, 24 hrs, read-out: Inhibitory rate (%). As for the experimental part:
PPARγ:RXRα:4ERPP/CHO-K1 cells (obtained in Reference Example 5a) cultured in Ham's F-12 medium (GIBCO, Inc.) supplemented with 10% fetal bovine serum (TRACE SCIENTIFIC, Ltd.) were seeded in a well of a 96 well white plate at 2×10^4 cells/well and cultured under 37° C. 5% CO2 conditions for 24 hrs. After removal of the medium, Ham's F-12 medium (GIBCO) containing 60 μl of 0.1% BSA (not containing fatty acid) (Wako Pure Chemical Industries, Ltd.), 20 μl of 10^−5M or 10^−6 M test compound and 20 μl of compound A having a final concentration of 10 nM as a stimulant were added, and the cells were cultured under 37° C. 5% CO2 conditions for 24 hrs. After removal of the medium, 40 μl of Pickagene LT7.5 (Wako Pure Chemical Industries, Ltd.) 2-fold diluted with HBSS (HANKS' BALANCED SALT SOLUTION) (BIO WHITTAKER Inc.) was added. After stirring, luciferase activity was measured using 1420 ARVO Multilabel Counter (Wallac, Inc.). In addition, a test similar to the above was conducted for the non-use of the aforementioned test compound alone and for the non-use of the aforementioned test compound and compound A to determine the luciferase activity.
The human PPARγ1 antagonistic activity of the test compound was evaluated using percentages (% inhibition) wherein the luciferase activity when 10 nM compound A alone was added was 0%, and the luciferase activity when the test compound and compound A were not added was 100%. The concentration of the test compound was 10^−5 M for the compounds of Example 42 and 315 and 10^−6 M for other test compounds.
After a CHO-K1 cell cultured in a cell culture flask (150 cm^2) (produced by Corning Costar Corporation, USA) containing Ham's F-12 medium (produced by Life Technologies, Inc., USA) supplemented with 10% fetal bovine serum (produced by Life Technologies, Inc., USA) was detached by treating with 0.5 g/L trypsin-0.2 g/L EDTA (ethylenediaminetetraacetic acid) (produced by Life Technologies, Inc., USA), the cell was washed with PBS (phosphate-buffered saline) (produced by Life Technologies, Inc., USA), centrifuged (1000 rpm, 5 minutes), and then suspended in PBS. Subsequently, the DNA was introduced into the cells under the conditions shown below using GENE PULSER (produced by Bio-Rad Laboratories, USA).
Namely, to a cuvette having a 0.4 cm gap, added were 8×10^6 cells and 10 μg of plasmid pVgRXR2-hPPARγ obtained in Reference Example 4a and 10 μg of reporter plasmid pGL3-4ERPP-TK neo obtained in Reference Example 2a, which was subjected to electroporation at the voltage of 0.25 kV under the capacitance of 960 μF. Subsequently, the cell was transferred into a Ham's F-12 medium containing 10% fetal bovine serum and cultured for 24 hours and then the cells were detached again and centrifuged, and then suspended in HAM F12 medium containing 10% fetal bovine serum supplemented with 500 μg/ml of GENETICIN (produced by Life Technologies, Inc., USA) and 250 μg/ml of ZEOCIN (produced by Invitrogen, USA). The obtained suspension was diluted to the density of 10^4 cells/ml and inoculated to a 96-well plate (produced by Corning Costar Corporation, USA), which was cultured in a CO2 gas incubator at 37° C., whereby obtaining a GENETICIN- and ZEOCIN-resistant transformant. Subsequently, after the transformant cell line thus obtained was cultured in a 24-well plate (produced by Corning Costar Corporation, USA), selected was a cell line in which the luciferase was expressed and induced, i.e., PPARγ:RXRα:4ERPP/CHO-K1 cell by the addition of 10 μM pioglitazone hydrochloride.
A general note: In a reporter assay the amount or activity of a reporter protein is the signal.
Regarding `COc1cc(COc2nn(-c3ccccc3)cc2/C=C/c2csc(C(C)(C)C)n2)ccc1OCc1nc(-c2ccc(CC(=O)O)cc2)oc1C` [Example 359, {4-[4-({4-[({4-[(E)-2-(2-tert-butyl-1,3-thiazol-4-yl)ethenyl]-1-phenyl-1H-pyrazol-3-yl}oxy)methyl]-2-methoxyphenoxy}methyl)-5-methyl-1,3-oxazol-2-yl]phenyl}acetic acid], the inhibition at 1 µM came out at 111%.

As for `COc1cc(COc2nn(-c3ccccc3)cc2/C=C/c2coc(C(C)(C)C)n2)ccc1OCc1nc(-c2ccc(CC(=O)O)cc2)oc1C` [Example 371, {4-[4-({4-[({4-[(E)-2-(2-tert-butyl-1,3-oxazol-4-yl)ethenyl]-1-phenyl-1H-pyrazol-3-yl}oxy)methyl]-2-methoxyphenoxy}methyl)-5-methyl-1,3-oxazol-2-yl]phenyl}acetic acid], the inhibition at 1 µM amounted to 114%.

The values above are taken from patent US7368578B2, “Five-membered heterocyclic compounds” (Takeda Pharmaceutical Company Limited, priority 2002, dated 2008).
